Data as given in US4241083A, “Germicidal composition for agriculture and horticulture” (priority 1978, dated 1980).

Columns and labels:
Valsa ceratosperma = test: Growth of germs on potato dextrose-agar medium containing the compound (Ex. 1); format: cell-based; set-up: key: +++: extremely much growth; ++: much growth; +: a little growth; -: no growth; details: two weeks, 25° C.
Protocol: (§1) Ethyl 2-(2-hydroxyethylamino)-3-benzoylpropionate hydrochloride was added to potato dextrose-agar culture medium in the concentration indicated in Table 1 and the suspensions of various kinds of germs were dropped on the culture medium. After incubation of the germs for two weeks in thermostat (25° C.), the growing conditions were observed.
(§2) In Table 1, +++, ++, + and - represent "extremely much growth", "much growth", "a little growth" and "no growth" respectively.

Verticillium alboatrum = test: Growth of germs on potato dextrose-agar medium containing the compound (Ex. 2); format: cell-based; set-up: key: +++: extremely much growth; ++: much growth; +: a little growth; -: no growth; details: two weeks, 25° C.
Protocol: as §1, §2

Cladosporium cucumerium [1] = test: Growth of germs on potato dextrose-agar medium containing the compound (Ex. 4); format: cell-based; set-up: key: +++: extremely much growth; ++: much growth; +: a little growth; -: no growth; details: two weeks, 25° C.
Protocol: as §1, §2

Stemphylium lycopersici = test: Growth of germs on potato dextrose-agar medium containing the compound (Ex. 7); format: cell-based; set-up: key: +++: extremely much growth; ++: much growth; +: a little growth; -: no growth; details: two weeks, 25° C.
Protocol: as §1, §2

[2] = tested on: Fusarium oxysporum f. lycopersici; test: Growth of germs on potato dextrose-agar medium containing the compound (Ex. 8); format: cell-based; set-up: key: +++: extremely much growth; ++: much growth; +: a little growth; -: no growth; details: two weeks, 25° C.
Protocol: as §1, §2

Sclerotinia sclerotiorum = test: Growth of germs on potato dextrose-agar medium containing the compound (Ex. 12); format: cell-based; set-up: key: +++: extremely much growth; ++: much growth; +: a little growth; -: no growth; details: two weeks, 25° C.
Protocol: as §1, §2

Mycosphaerella melonis = test: Growth of germs on potato dextrose-agar medium containing the compound (Ex. 13); format: cell-based; set-up: key: +++: extremely much growth; ++: much growth; +: a little growth; -: no growth; details: two weeks, 25° C.
Protocol: as §1, §2

Pyrenochaeta sp. = test: Growth of germs on potato dextrose-agar medium containing the compound (Ex. 14); format: cell-based; set-up: key: +++: extremely much growth; ++: much growth; +: a little growth; -: no growth; details: two weeks, 25° C.
Protocol: as §1, §2

Cercospora kikuchii = test: Growth of germs on potato dextrose-agar medium containing the compound (Ex. 15); format: cell-based; set-up: key: +++: extremely much growth; ++: much growth; +: a little growth; -: no growth; details: two weeks, 25° C.
Protocol: as §1, §2

[3] = tested on: Colletotrichum lagenarium; test: Prevention effect for anthracnose on cucumber (Ex. 18); format: in vivo; details: for Germicidal damage to seedlings: cucumber seedlings; for Number of disease spots per leaf / Percentage of leaves attacked with the disease / Prevention value per leaf (Perfect prevention = 100): sixth day after spraying
Source text: The prevention effect for anthracnose on cucumber was investigated in the following manner.
An aqueous solution of ethyl 2-(2-hydroxyethylamino)-3-benzoylpropionate hydrochloride (2500 ppm and 5000 ppm) was sprayed on cucumber seedlings (bifoliate age) of Tokiwa Hikari No. 3 (p type) variety which were planted in sections of two rows of three.
After air-drying the seedlings, a spore suspention of Colletotrichum lagenarium was inoculated on the test seedlings by means of a glass sprayer. The inoculated seedlings were kept at 20°-22° C. for four days in the inoculation box, and then allowed to stand in a glass chamber.
The number of disease spots of anthracnose that appeared on the cucumber leaves was measured on the sixth day after spraying the germicidal aqueous solution. The number of spots can be used to calculate a prevention value. Using the number of spots that appeared per control leaf as a reference, the relative number per hundred of spots prevented by the experimental germicide is the prevention value. Thus a perfectly preventive germicide has a prevention value of 100 and the control has a prevention value of 0.

Cladosporium cucumerium [4] = test: Prevention effect for cucumber scab (Ex. 19); format: in vivo; details: for Germicidal damage to seedlings: cucumber seedlings; for Percentage of leaf area with disease spots / Percentage of leaves attacked with the disease / Prevention value per leaf (Perfect prevention = 100): eighth day after spraying
Source text: The prevention effect for cucumber scab was examined in the following manner.
An aqueous solution of ethyl 2-(2-hydroxyethylamino)-3-benzoylpropionate hydrochloride (2500 ppm or 5000 ppm) was sprayed on cucumber seedlings (bifoliate age) of Tokiwa Hikari No. 3 (p type) variety which were planted in sections in two rows of three.
After air-drying the seedlings, a spore suspention of Cladosporium cucumerium was inoculated on the test seedlings by means of a glass sprayer. The inoculated seedlings were kept at 18°-20° C. for four days in an inoculation box and then allowed to stand in a glass chamber.
The leaf area on which scab spots appeared was measured on the eighth day after spraying the aqueous germicide solution. The spotted area is expressed as a prevention value.

Sphaerotheca fuliginea = test: Prevention effect for powdery mildew on cucumbers (Ex. 20, 21); format: in vivo; details: Table 5; for Germicidal damage to seedlings: cucumber seedlings; for Percentage of leaf area with disease spots / Percentage of leaves attacked with the disease / Prevention value per leaf (Perfect prevention = 100): third and ninth days, read fifteenth day after inoculation
Protocol: The prevention effect for powdery mildew on cucumbers caused by Sphaerotheca fuliginea was examined in the following manner.
Cucumber seedlings (bifoliate age) of Tokiwa Hikari No. 3 (p type) variety planted in sections of two rows of three were inoculated with the above germ by brushing on spores from a cucumber leaf attacked with powdery mildew. […]
The leaf area on which powdery mildew spots appeared was measured on the fifteenth day after the seedlings were inoculated with the germ. The spotted area is expresses as a prevention value.
The same experiment as Example 20 was carried out except that isopropyl 2-(2-hydroxyethylamino)-3-benzoyl-propionate hydrochloride was used instead of ethyl 2-(2-hydroxyethylamino)-3-benzoylpropionate hydrochloride.

CCOC(=O)C(CC(=O)c1ccccc1)NCCO.Cl (stereo not drawn) [Ethyl 2-(2-hydroxyethylamino)-3-benzoylpropionate hydrochloride]
growing conditions (growth of germ) (Valsa ceratosperma; 10 ppm): -
growing conditions (growth of germ) (Valsa ceratosperma; 20 ppm): -
growing conditions (growth of germ) (Valsa ceratosperma; 50 ppm): -
growing conditions (growth of germ) (Valsa ceratosperma; 100 ppm): -
growing conditions (growth of germ) (Valsa ceratosperma; 200 ppm): -
growing conditions (growth of germ) (Verticillium alboatrum; 10 ppm): +++
growing conditions (growth of germ) (Verticillium alboatrum; 20 ppm): ++
growing conditions (growth of germ) (Verticillium alboatrum; 50 ppm): -
growing conditions (growth of germ) (Verticillium alboatrum; 100 ppm): -
growing conditions (growth of germ) (Verticillium alboatrum; 200 ppm): -
growing conditions (growth of germ) (Cladosporium cucumerium [1]; 10 ppm): +++
growing conditions (growth of germ) (Cladosporium cucumerium [1]; 20 ppm): +++
growing conditions (growth of germ) (Cladosporium cucumerium [1]; 50 ppm): -
growing conditions (growth of germ) (Cladosporium cucumerium [1]; 100 ppm): -
growing conditions (growth of germ) (Cladosporium cucumerium [1]; 200 ppm): -
growing conditions (growth of germ) (Stemphylium lycopersici; 10 ppm): +
growing conditions (growth of germ) (Stemphylium lycopersici; 20 ppm): +
growing conditions (growth of germ) (Stemphylium lycopersici; 50 ppm): -
growing conditions (growth of germ) (Stemphylium lycopersici; 100 ppm): -
growing conditions (growth of germ) (Stemphylium lycopersici; 200 ppm): -
growing conditions (growth of germ) ([2]; 10 ppm): +++
growing conditions (growth of germ) ([2]; 20 ppm): ++
growing conditions (growth of germ) ([2]; 50 ppm): -
growing conditions (growth of germ) ([2]; 100 ppm): -
growing conditions (growth of germ) ([2]; 200 ppm): -
growing conditions (growth of germ) (Sclerotinia sclerotiorum; 10 ppm): +++
growing conditions (growth of germ) (Sclerotinia sclerotiorum; 20 ppm): +++
growing conditions (growth of germ) (Sclerotinia sclerotiorum; 50 ppm): -
growing conditions (growth of germ) (Sclerotinia sclerotiorum; 100 ppm): -
growing conditions (growth of germ) (Sclerotinia sclerotiorum; 200 ppm): -
growing conditions (growth of germ) (Mycosphaerella melonis; 10 ppm): +++
growing conditions (growth of germ) (Mycosphaerella melonis; 20 ppm): -
growing conditions (growth of germ) (Mycosphaerella melonis; 50 ppm): -
growing conditions (growth of germ) (Mycosphaerella melonis; 100 ppm): -
growing conditions (growth of germ) (Mycosphaerella melonis; 200 ppm): -
growing conditions (growth of germ) (Pyrenochaeta sp.; 10 ppm): ++
growing conditions (growth of germ) (Pyrenochaeta sp.; 20 ppm): ++
growing conditions (growth of germ) (Pyrenochaeta sp.; 50 ppm): -
growing conditions (growth of germ) (Pyrenochaeta sp.; 100 ppm): -
growing conditions (growth of germ) (Pyrenochaeta sp.; 200 ppm): -
growing conditions (growth of germ) (Cercospora kikuchii; 10 ppm): +
growing conditions (growth of germ) (Cercospora kikuchii; 20 ppm): -
growing conditions (growth of germ) (Cercospora kikuchii; 50 ppm): -
growing conditions (growth of germ) (Cercospora kikuchii; 100 ppm): -
growing conditions (growth of germ) (Cercospora kikuchii; 200 ppm): -
Germicidal damage to seedlings ([3]; 2500 ppm): none
Number of disease spots per leaf ([3]; 2500 ppm): 2.83
Percentage of leaves attacked with the disease ([3]; 2500 ppm): 83.3%
Prevention value per leaf (Perfect prevention = 100) ([3]; 2500 ppm): 88.0
Germicidal damage to seedlings ([3]; 5000 ppm): none
Number of disease spots per leaf ([3]; 5000 ppm): 2.92
Percentage of leaves attacked with the disease ([3]; 5000 ppm): 91.7%
Prevention value per leaf (Perfect prevention = 100) ([3]; 5000 ppm): 87.6
Germicidal damage to seedlings (Cladosporium cucumerium [4]; 2500 ppm): none
Percentage of leaf area with disease spots (Cladosporium cucumerium [4]; 2500 ppm): 25.0%
Percentage of leaves attacked with the disease (Cladosporium cucumerium [4]; 2500 ppm): 100%
Prevention value per leaf (Perfect prevention = 100) (Cladosporium cucumerium [4]; 2500 ppm): 63.4
Germicidal damage to seedlings (Cladosporium cucumerium [4]; 5000 ppm): none
Percentage of leaf area with disease spots (Cladosporium cucumerium [4]; 5000 ppm): 20.0%
Percentage of leaves attacked with the disease (Cladosporium cucumerium [4]; 5000 ppm): 100%
Prevention value per leaf (Perfect prevention = 100) (Cladosporium cucumerium [4]; 5000 ppm): 70.7
Germicidal damage to seedlings (Sphaerotheca fuliginea; 2500 ppm): none
Percentage of leaf area with disease spots (Sphaerotheca fuliginea; 2500 ppm): 0%
Percentage of leaves attacked with the disease (Sphaerotheca fuliginea; 2500 ppm): 0%
Prevention value per leaf (Perfect prevention = 100) (Sphaerotheca fuliginea; 2500 ppm): 100
Germicidal damage to seedlings (Sphaerotheca fuliginea; 5000 ppm): none
Percentage of leaf area with disease spots (Sphaerotheca fuliginea; 5000 ppm): 0%
Percentage of leaves attacked with the disease (Sphaerotheca fuliginea; 5000 ppm): 0%
Prevention value per leaf (Perfect prevention = 100) (Sphaerotheca fuliginea; 5000 ppm): 100
